This is an account of results in ChEMBL document CHEMBL3352218, “Structural basis for inhibition of mycobacterial and human adenosine kinase by 7-substituted 7-(Het)aryl-7-deazaadenine ribonucleosides” (J Med Chem, 2014).

The target of assay [1] is T1, Adenosine kinase (Homo sapiens, UniProt P55263). Nature of the assay: Binding affinity to human ADK expressed in Escherichia coli BL21(DE3) cells in presence of ATPgammaS by two dimensional 15N/1H triple-resonance HSQC NMR spectroscopy.
Target sequence in this assay (P55263 2-362 limits assumed): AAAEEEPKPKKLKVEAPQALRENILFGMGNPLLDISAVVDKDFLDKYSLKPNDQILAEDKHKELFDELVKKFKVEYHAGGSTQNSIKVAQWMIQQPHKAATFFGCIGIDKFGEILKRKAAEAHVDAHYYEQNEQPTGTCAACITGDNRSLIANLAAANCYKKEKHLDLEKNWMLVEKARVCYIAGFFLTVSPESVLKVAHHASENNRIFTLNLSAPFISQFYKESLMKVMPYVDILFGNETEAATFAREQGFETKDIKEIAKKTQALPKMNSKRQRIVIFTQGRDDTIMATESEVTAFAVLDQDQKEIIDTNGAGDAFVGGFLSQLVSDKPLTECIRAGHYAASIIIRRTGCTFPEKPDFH
Assay [2] deals with Mycobacterium tuberculosis. Kind of assay: Antimycobacterial activity against Mycobacterium tuberculosis H37Rv My 331/88 assessed as microbial growth inhibition incubated for 14 days. Format: functional. The conditions noted are these: H37Rv My 331/88, 336 h.
For assay [3], the target named is T1, Adenosine kinase. Nature of the assay: Binding affinity to human ADK expressed in Escherichia coli BL21(DE3) cells assessed as relative STD enhancements of signal from H-1' at 500 uM by 1H STD NMR spectroscopy.
Target sequence in this assay (P55263 2-362 limits assumed): as above
A short description of assay [4]: Inhibition of Mycobacterium tuberculosis ADK expressed in Escherichia coli BL21(DE3) cells using [3H]adenosine by liquid scintillation counting method.
Assay [5] addresses T1, Adenosine kinase. Kind of assay: Inhibition of human ADK expressed in Escherichia coli BL21(DE3) cells using [3H]adenosine by liquid scintillation counting method.
Target sequence in this assay (P55263 whole entry): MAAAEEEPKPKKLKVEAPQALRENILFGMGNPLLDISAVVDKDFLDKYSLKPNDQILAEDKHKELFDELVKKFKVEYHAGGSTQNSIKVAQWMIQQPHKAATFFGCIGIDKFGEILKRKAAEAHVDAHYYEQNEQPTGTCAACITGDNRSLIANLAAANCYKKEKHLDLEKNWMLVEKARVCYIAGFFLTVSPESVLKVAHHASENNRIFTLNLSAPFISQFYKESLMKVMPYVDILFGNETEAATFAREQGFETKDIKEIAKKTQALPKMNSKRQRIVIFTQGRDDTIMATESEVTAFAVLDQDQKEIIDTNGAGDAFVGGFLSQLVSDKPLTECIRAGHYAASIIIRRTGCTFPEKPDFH
The subject of assay [6] is Mycobacterium tuberculosis. Kind of assay: Binding affinity to Mycobacterium tuberculosis ADK expressed in Escherichia coli BL21(DE3) cells assessed as relative STD enhancements of signal from Ar' at 500 uM by 1H STD NMR spectroscopy.
The target of assay [7] is T1, Adenosine kinase. Nature of the assay: Binding affinity to human ADK expressed in Escherichia coli BL21(DE3) cells assessed as relative STD enhancements of signal from H-2 at 500 uM by 1H STD NMR spectroscopy.
Target sequence in this assay (P55263 2-362 limits assumed): as the sequence (P55263 2-362 limits assumed) above
The test system of assay [8] is Mycobacterium tuberculosis. Kind of assay: Binding affinity to Mycobacterium tuberculosis ADK expressed in Escherichia coli BL21(DE3) cells assessed as relative STD enhancements of signal from H-8 at 500 uM by 1H STD NMR spectroscopy.
For assay [9], the system named is Mycobacterium tuberculosis. Nature of the assay: Activity of Mycobacterium tuberculosis ADK expressed in Escherichia coli BL21(DE3) cells assessed as compound phosphorylation by measuring conversion of compound to 5'-phosphate.
Assay [10] deals with Mycobacterium tuberculosis. Kind of assay: Binding affinity to Mycobacterium tuberculosis ADK expressed in Escherichia coli BL21(DE3) cells assessed as relative STD enhancements of signal from H-2 at 500 uM by 1H STD NMR spectroscopy.
Assay [11] addresses T1, Adenosine kinase. Kind of assay: Binding affinity to human ADK expressed in Escherichia coli BL21(DE3) cells assessed as relative STD enhancements of signal from Ar at 500 uM by 1H STD NMR spectroscopy.
Target sequence in this assay (P55263 2-362 limits assumed): as above
Assay [12] has as its system Mycobacterium tuberculosis. Kind of assay: Binding affinity to Mycobacterium tuberculosis ADK expressed in Escherichia coli BL21(DE3) cells assessed as relative STD enhancements of signal from Ar at 500 uM by 1H STD NMR spectroscopy.
Another assay relates to MRC5. Nature of the assay: Cytotoxicity against human MRC5 cells by MTT assay. Format: functional. (Tetrazolium assays rely on reduction of a dye to a coloured formazan, in cell work by metabolically active cells.)
Assay [13] relates to Mycobacterium tuberculosis. Nature of the assay: Binding affinity to Mycobacterium tuberculosis ADK expressed in Escherichia coli BL21(DE3) cells assessed as relative STD enhancements of signal from Ar'' at 500 uM by 1H STD NMR spectroscopy.
Assay [14] concerns Mycobacterium tuberculosis. Nature of the assay: Binding affinity to Mycobacterium tuberculosis ADK expressed in Escherichia coli BL21(DE3) cells assessed as relative STD enhancements of signal from H-1' at 500 uM by 1H STD NMR spectroscopy.
The target of assay [15] is T1, Adenosine kinase. Kind of assay: Activity of human ADK expressed in Escherichia coli BL21(DE3) cells assessed as compound phosphorylation by measuring conversion of compound to 5'-phosphate. Also on record: concentration or dose not given beside the values.
Target sequence in this assay (P55263 2-362 limits assumed): as above
The target in assay [16] is T1, Adenosine kinase. Kind of assay: Binding affinity to free human ADK expressed in Escherichia coli BL21(DE3) cells by two dimensional 15N/1H triple-resonance HSQC NMR spectroscopy.
Target sequence in this assay (P55263 2-362 limits assumed): as above
Another assay concerns BJ. Kind of assay: Cytotoxicity against human BJ cells by MTT assay. Format: functional.
Assay [17] concerns the target T1, Adenosine kinase. Nature of the assay: Binding affinity to human ADK expressed in Escherichia coli BL21(DE3) cells assessed as relative STD enhancements of signal from H-8 at 500 uM by 1H STD NMR spectroscopy.
Assay [18] has as its target T1, Adenosine kinase. Kind of assay: Binding affinity to human ADK expressed in Escherichia coli BL21(DE3) cells in presence of adenosine by two dimensional 15N/1H triple-resonance HSQC NMR spectroscopy.
In assay [19] the test system is Mycobacterium tuberculosis. Nature of the assay: Mixed competitive inhibition of Mycobacterium tuberculosis ADK expressed in Escherichia coli BL21(DE3) cells using varying adenosine levels by Lineweaver-Burk plot.
For assay [20], the target named is T1, Adenosine kinase. Kind of assay: Mixed competitive inhibition of human ADK expressed in Escherichia coli BL21(DE3) cells using varying adenosine levels by Lineweaver-Burk plot.
Assay [21] concerns the target T1, Adenosine kinase. Nature of the assay: Mixed uncompetitive inhibition of human ADK expressed in Escherichia coli BL21(DE3) cells using varying ATP levels by Lineweaver-Burk plot.
Assay [22] has as its system Mycobacterium tuberculosis. Kind of assay: Mixed competitive inhibition of Mycobacterium tuberculosis ADK expressed in Escherichia coli BL21(DE3) cells using varying ATP levels by Lineweaver-Burk plot.

As a reminder, the MIC is the lowest concentration found to suppress growth. Usually IC50 stands for the point on the concentration scale where inhibition reaches its midpoint. The term CC50 denotes the concentration that lowers cell viability or growth by half.

In brackets after ≈: the same amount, converted by molar mass. Activity calls are given as the source filed them. The rule behind the calls is not given here.

In the case of `Nc1ncnc2c1c(-c1ccco1)cn2[C@@H]1O[C@H](CO)[C@@H](O)[C@H]1O`, the outcome at Adenosine kinase [1], on Adenosine kinase [16] and on Adenosine kinase [18] was Active. The MIC in assay [2] stood at 62.5 µM (≈ 20.8 µg/mL). Besides, the Activity on Adenosine kinase [3] came out at 100%; in assay [6], 31%; at Adenosine kinase [7], 64%; in assay [8], 29%; in assay [10], 43%; on Adenosine kinase [11], 74%. Also, the Activity amounted to 38% in assay [12]; 39% in [13]; 100% in [14]; 8% at Adenosine kinase [15]; 36% on Adenosine kinase [17]. Also, the IC50 is 2.1 µM in assay [4] and > 5 µM against Adenosine kinase [5]. Further, the outcome in assay [9] was inactive. Also, the CC50 came out at 9.49 µM in the assay with MRC5 and 18.3 µM with BJ.

In the case of `Nc1ncnc2c1c(-c1cccc3c1Oc1ccccc1S3)cn2[C@@H]1O[C@H](CO)[C@@H](O)[C@H]1O`, the result at Adenosine kinase [1], on Adenosine kinase [16] and at Adenosine kinase [18] was Active. Further, the MIC in assay [2] amounted to 16 µM (≈ 7.43 µg/mL). The Activity at Adenosine kinase [3] came to 100%; at Adenosine kinase [7], 33%; in assay [8], 68%; in assay [10], 50%; at Adenosine kinase [11], 60%; in assay [12], 83%. In addition, the Activity in assay [14] worked out at 100%; on Adenosine kinase [17], 39%. Also, the IC50 in assay [4] is 0.3 µM; against Adenosine kinase [5], > 20 µM. Also, the outcome in assay [9] was inactive. For the same molecule, the CC50 with MRC5 was 95.1 µM; in the assay on BJ, > 100 µM.

As for `Nc1ncnc2c1c(-c1nccs1)cn2[C@@H]1O[C@H](CO)[C@@H](O)[C@H]1O`, the result on Adenosine kinase [1], on Adenosine kinase [16] and on Adenosine kinase [18] was Active. Further, the MIC in assay [2] was found to be 125 µM (≈ 43.7 µg/mL). In addition, the Activity at Adenosine kinase [3] was determined as 100%; in assay [6], 45%; on Adenosine kinase [7], 57%; in [8], 33%; in [10] it was 37%; on Adenosine kinase [11], 52%. The Activity was 34% in assay [12], 100% in assay [14], 3% on Adenosine kinase [15] and 41% on Adenosine kinase [17]. Further, the IC50 in assay [4] turned out to be 4.5 µM; against Adenosine kinase [5], 2.3 µM. Further, in [9], the result was inactive. For the same molecule, the CC50 was 25.1 µM with MRC5 and > 100 µM in the assay on BJ.

With `CC(C)c1cccc(-c2cn([C@@H]3O[C@H](CO)[C@@H](O)[C@H]3O)c3ncnc(N)c23)c1`, the outcome on Adenosine kinase [1], at Adenosine kinase [16] and at Adenosine kinase [18] was Active. Moreover, the MIC in [2] came to 32 µM (≈ 12.3 µg/mL). The Activity on Adenosine kinase [3] was found to be 100%; on Adenosine kinase [7] it was 72%; in assay [8], 42%; in assay [10], 42%; on Adenosine kinase [11] it was 52%; in [12] it was 37%. Also, the Activity in assay [14] stood at 100%; on Adenosine kinase [17], 72%. The 50% inhibitory concentration (IC50) was determined as 2.33 µM in [4] and 3.3 µM against Adenosine kinase [5]. Further, in assay [9], the outcome was inactive. Also, the CC50 in the assay on MRC5 and in the assay with BJ was > 100 µM each time.

As to `C#Cc1cn([C@@H]2O[C@H](CO)[C@@H](O)[C@H]2O)c2ncnc(N)c12`, the result at Adenosine kinase [1], at Adenosine kinase [16] and at Adenosine kinase [18] was Active. In addition, the minimum inhibitory concentration (MIC) in assay [2] came to 8 µM (≈ 2.32 µg/mL). Also, the Activity worked out at 100% at Adenosine kinase [3]; 33% at Adenosine kinase [7]; 54% in assay [8]; 63% in assay [10]; 100% in assay [14]; 62% at Adenosine kinase [15]. In addition, at Adenosine kinase [17], the Activity was 17%. In addition, the IC50 in [4] stood at 0.33 µM. The inhibition entry (in assay [19]; on Adenosine kinase [20]; on Adenosine kinase [21]; in assay [22]) was “Active” throughout. Also, in assay [9], the outcome was inactive. The figures for the CC50 in the assay on MRC5 and in the assay with BJ were 13.4 µM and 43.1 µM, respectively.

With `Nc1ncnc2c1ncn2[C@@H]1O[C@H](CO)[C@@H](O)[C@H]1O`, the Activity on Adenosine kinase [3] came out at 100%; on Adenosine kinase [7], 8%; in assay [8], 58%; in assay [10], 44%; in assay [14] it was 100%; on Adenosine kinase [17], 20%.

As for `Nc1ncnc2c1c(-c1c[nH]cn1)cn2[C@@H]1O[C@H](CO)[C@@H](O)[C@H]1O`, the MIC in [2] was > 250 µM. In addition, the figures for the IC50 (in assay [4]; at Adenosine kinase [5]) were > 10 µM and 13 µM, respectively. Also, in [9], the result was inactive. The CC50 turned out to be 0.33 µM with MRC5 and 0.12 µM in the assay on BJ. In addition, on Adenosine kinase [15], the Activity was 47%.

In the case of `Nc1ncnc2c1c(-c1ccc[nH]1)cn2[C@@H]1O[C@H](CO)[C@@H](O)[C@H]1O`, in [2], the MIC came out at 62.5 µM (≈ 20.7 µg/mL). Besides, the IC50 in [4] was 4.4 µM; on Adenosine kinase [5], > 20 µM. Also, the result in assay [9] was inactive. The figures for the CC50 in the assay on MRC5 and in the assay with BJ were 99.6 µM and > 100 µM, respectively. Further, at Adenosine kinase [15], the Activity amounted to 6%.

Take `Nc1ncnc2c1ncn2[C@@H]1O[C@H](COP(=O)(O)OP(=O)(O)OP(=O)(O)O)[C@@H](O)[C@H]1O`: the Activity on Adenosine kinase [3] is 100%; at Adenosine kinase [7], < 1%; in assay [8] it was 24%; in assay [10], 57%; in [14], 100%; on Adenosine kinase [17] it was < 1%.
